{"source": "paper PMC5820187", "about": "(Archives of toxicology, 2017)", "key": {"embryonic zebrafish [1]": {"test_system": "embryonic zebrafish", "experiment": "Embryonic photomotor response", "type": "in vivo", "settings": "24 hpf embryos; for EPR effect: any phase"}, "embryonic zebrafish [2]": {"test_system": "embryonic zebrafish", "settings": "for Bioactivity across the developmental toxicity assays (morphology, EPR, LPR): exposure 6-120 hpf"}, "CYP1A protein expression": {"test_system": "CYP1A protein expression", "settings": "zebrafish, in vivo"}, "zebrafish larvae": {"test_system": "zebrafish larvae", "experiment": "Larval photomotor response", "type": "in vivo", "settings": "120 hpf larvae; for LPR effect: at least one phase (light or dark)"}, "[3]": {"settings": "static exposure 6-120 hpf, 0.1-50 μM, assessed at 24 and 120 hpf"}, "[4]": {"settings": "hierarchical clustering of lowest effect levels, Fig 2"}}, "note": "Read-outs that look alike come from different tables or passages of the source.", "data": [{"smiles": "Oc1cc2ccccc2cc1O", "note": "[2,3-dihydroxynaphthalene]", "values": [{"measurement": "EPR effect", "setting": "embryonic zebrafish [1]", "result": "significant effects on EPR"}]}, {"smiles": "O=C1c2ccccc2C(=O)c2ccccc21", "note": "[Anthraquinone]", "values": [{"measurement": "Mortality and morphological effects (developmental toxicity endpoints, LELs)", "setting": "embryonic zebrafish [2]; [3]", "result": "did not cause morphological effects"}]}, {"smiles": "CCc1ccc2c(c1)C(=O)c1ccccc1C2=O", "note": "[2-ethylanthraquinone]", "values": [{"measurement": "Mortality and morphological effects (developmental toxicity endpoints, LELs)", "setting": "embryonic zebrafish [2]; zebrafish, in vivo", "result": "increased mortality"}, {"measurement": "Number of developmental endpoints affected", "setting": "embryonic zebrafish [2]; zebrafish, in vivo", "result": 15}, {"measurement": "Tissue Type expressing CYP1A", "setting": "CYP1A protein expression", "result": "Yolk"}, {"measurement": "LPR effect", "setting": "zebrafish larvae", "result": "every derivative except 2-nitroanthracene and 2-ethylanthraquinone affected LPR behavior"}]}, {"smiles": "Oc1cccc2c(O)cccc12", "note": "[1,5-dihydroxynaphthalene]", "values": [{"measurement": "Mortality and morphological effects (developmental toxicity endpoints, LELs)", "setting": "embryonic zebrafish [2]; [3]", "result": "effects on mortality or morphology"}]}, {"smiles": "Oc1cccc2ccccc12", "note": "[1-hydroxynaphthalene]", "values": [{"measurement": "Mortality and morphological effects (developmental toxicity endpoints, LELs)", "setting": "embryonic zebrafish [2]; zebrafish, in vivo", "result": "effects on mortality or morphology"}]}, {"smiles": "Oc1ccc2ccccc2c1", "note": "[2-hydroxynaphthalene]", "values": [{"measurement": "Mortality and morphological effects (developmental toxicity endpoints, LELs)", "setting": "embryonic zebrafish [2]; zebrafish, in vivo", "result": "effects on mortality or morphology"}]}, {"smiles": "Cc1cccc2c(C)cccc12", "note": "[1,5-dimethylnaphthalene]", "values": [{"measurement": "Tissue Type expressing CYP1A", "setting": "CYP1A protein expression", "result": "Liver"}]}, {"smiles": "Cc1ccc2ccc3ccc(C)cc3c2c1", "note": "[3,6-dimethylphenanthrene]", "values": [{"measurement": "EPR effect", "setting": "embryonic zebrafish [1]", "result": "hypoactivity"}, {"measurement": "LPR effect in the light phase", "setting": "zebrafish larvae", "result": "effects on LPR in the light"}]}, {"smiles": "c1ccc2c(c1)cc1ccc3cccc4c5ccccc5c2c1c34", "note": "[Dibenzo[a,l]pyrene]", "values": [{"measurement": "Developmental toxicity profile group", "setting": "embryonic zebrafish [2]; [4]", "result": "Groups 1 and 2"}]}, {"smiles": "Cc1cccc2c1ccc1cc(C(C)C)ccc12", "note": "[Retene]", "values": [{"measurement": "Tissue Type expressing CYP1A", "setting": "CYP1A protein expression", "result": "Vasculature"}]}, {"smiles": "O=[N+]([O-])c1cc2ccc3cccc4ccc(c1)c2c34", "note": "[2-nitropyrene]", "values": [{"measurement": "Bioactivity across the developmental toxicity assays (morphology, EPR, LPR)", "setting": "embryonic zebrafish [2]; 0.1-50 μM", "result": "only the cumulative ‘any’ endpoints"}]}, {"smiles": "c1ccc2c(c1)cc1ccc3cc4ccccc4c4ccc2c1c34", "note": "[Dibenzo[a,i]pyrene]", "values": [{"measurement": "Mortality and morphological effects (developmental toxicity endpoints, LELs)", "setting": "embryonic zebrafish [2]; [3]", "result": "no observed morphology effects"}]}, {"smiles": "c1ccc2[nH]ccc2c1", "note": "[Indole]", "values": [{"measurement": "Tissue Type expressing CYP1A", "setting": "CYP1A protein expression", "result": "Yolk"}]}, {"smiles": "c1ccc2ncccc2c1", "note": "[Quinoline]", "values": [{"measurement": "Developmental toxicity profile group", "setting": "embryonic zebrafish [2]; zebrafish, in vivo", "result": "Group 5"}, {"measurement": "EPR effect", "setting": "embryonic zebrafish [1]", "result": "only had an observed effect on EPR"}]}, {"smiles": "c1cc2ccc3cccc4ccc(c1)c2c34", "note": "[Pyrene]", "values": [{"measurement": "LPR effect", "setting": "zebrafish larvae", "result": "significant LPR effects"}]}, {"smiles": "Cc1ccc2cc(C)ccc2c1", "note": "[2,6-dimethylnaphthalene]", "values": [{"measurement": "LPR effect", "setting": "zebrafish larvae", "result": "All derivatives except 2,6-dimethylnaphthalene had LPR effects in at least one phase"}]}, {"smiles": "O=[N+]([O-])c1ccc2cc3ccccc3cc2c1", "note": "[2-nitroanthracene]", "values": [{"measurement": "LPR effect", "setting": "zebrafish larvae", "result": "every derivative except 2-nitroanthracene and 2-ethylanthraquinone affected LPR behavior"}]}, {"smiles": "c1ccc2c(c1)oc1ccccc12", "note": "[Dibenzofuran]", "values": [{"measurement": "Tissue Type expressing CYP1A", "setting": "CYP1A protein expression", "result": "Vasculature"}]}, {"smiles": "c1ccc2c(c1)cc1ccc3c4ccccc4cc4ccc2c1c43", "note": "[Dibenzo[a,h]pyrene]", "values": [{"measurement": "EPR effect in the Refractory period", "setting": "embryonic zebrafish [1]", "result": "hypoactive response"}]}, {"smiles": "c1ccc2ccccc2c1", "note": "[Naphthalene]", "values": [{"measurement": "LPR effect in the dark phase", "setting": "zebrafish larvae", "result": "hyperactivity"}, {"measurement": "LPR effect in the light phase", "setting": "zebrafish larvae", "result": "hyperactivity"}]}, {"smiles": "c1ccc2c(c1)-c1cccc3cccc-2c13", "note": "[Fluoranthene]", "values": [{"measurement": "Tissue Type expressing CYP1A", "setting": "CYP1A protein expression", "result": "Vasculature, Yolk"}]}, {"smiles": "c1ccc2cc3c4ccccc4c4ccccc4c3cc2c1", "note": "[Dibenz[a,c]anthracene]", "values": [{"measurement": "Developmental toxicity profile group", "setting": "embryonic zebrafish [2]; [4]", "result": "Groups 1 and 2"}]}, {"smiles": "c1ccc2c(c1)ccc1ccccc12", "note": "[Phenanthrene]", "values": [{"measurement": "EPR effect", "setting": "embryonic zebrafish [1]", "result": "did not induce mortality or morphology changes, EPR effects"}, {"measurement": "LPR effect in the light phase", "setting": "zebrafish larvae", "result": "hyperactivity"}]}, {"smiles": "O=C1C=CC(=O)c2cc3ccccc3cc21", "note": "[1,4-anthraquinone]", "values": [{"measurement": "Bioactivity across the developmental toxicity assays (morphology, EPR, LPR)", "setting": "embryonic zebrafish [2]; 0.1-50 μM", "result": "most toxic derivative tested"}, {"measurement": "Concentrations with increased mortality", "setting": "embryonic zebrafish [2]; static exposure 6-120 hpf", "result": "below 10 μM"}]}, {"smiles": "O=C1C=Cc2ccccc2C1=O", "note": "[1,2-naphthoquinone]", "values": [{"measurement": "Mortality and morphological effects (developmental toxicity endpoints, LELs)", "setting": "embryonic zebrafish [2]; [3]", "result": "effects on mortality or morphology"}]}, {"smiles": "c1ccc2cc3ccccc3cc2c1", "note": "[Anthracene]", "values": [{"measurement": "Mortality and morphological effects (developmental toxicity endpoints, LELs)", "setting": "embryonic zebrafish [2]; [3]", "result": "no observed morphology effects"}]}]}
